# Source: US11859248B2, “Nucleic acid modification and identification method” (IMBA—INSTITUT FÜR MOLEKULARE BIOTECHNOLOGIE GMBH, priority 2017, dated 2024)
# What was measured:
# [1] = tested on: mES cells; assay: HPLC analysis of s^4U-incorporation into total RNA of mES cells after metabolic labeling; type: cell-based, mouse; settings: 100 μM s^4U, 24 h labeling
# Method: Analysis of s^4U- or s^6G-incorporation into total RNA following metabolic labeling was performed as previously described by Spitzer et al. (Meth Enzymol. 539, 113-161 (2014)).
# (§1) mES cells were seeded the day before the experiment at a density of 10^5 cells/ml in 10 cm dishes. s^4U-metabolic labeling was performed by incubation of mES cells in standard medium but adding 100 μM s^4U or s^6G (SIGMA) from a 500 mM stock solution in water. During the metabolic labeling, s^4U or s^6G containing medium was exchanged every 3 h. For the uridine chase experiment, s^4U or s^6G containing medium was discarded, cells were washed twice with 1× PBS and incubated with standard medium supplemented with 10 mM uridine (SIGMA). Cells were directly lysed in TRIzol® (Ambion) and RNA was extracted following the manufacturer instructions except that 0.1 mM final concentration of DTT was added during isopropanol precipitation. RNA was resuspended in 1 mM DTT. […]
# We tested the ability of mouse embryonic stem cells to tolerate s^4U metabolic RNA-labeling after 12 h or 24 h at varying s^4U concentrations (FIG. 6A). […] Under these conditions, we detected a steady increase in s^4U-incorporation in total RNA preparation 3 h, 6 h, 12 h, and 24 h post labeling, as well as a steady decrease 3 h, 6 h, 12 h, and 24 h after uridine chase (FIG. 6B). […]
# [2] = tested on: mES cells; assay: mRNA 3' end sequencing (Quant-seq/SLAM-seq) of mES cells after s^4U metabolic labeling; type: cell-based, mouse
# Method: as §1, with “(SIGMA).” for “(SIGMA). Cells were directly lysed in TRIzol® (Ambion) and RNA was extracted following the manufacturer instructions except that 0.1 mM final concentration of DTT was added during isopropanol precipitation. RNA was resuspended in 1 mM DTT.”
# For analysis of mRNA 3′ end sequencing (Quant-seq) datasets, reads were demultiplexed using Picard Tools BamIndexDecoder v1.13 allowing 1 mismatch in the barcode. Five nucleotides at the 5′ end of demultiplexed reads were trimmed. Reads were aligned to mouse genome mm10 and alignments in annotated 3′ UTRs (Gencode) were counted using SLAMdunk (Neumann & Rescheneder, t-neumann.github.io/slamdunk/; Herzog et al., Nature Methods 14, 1198-1204 (2017)). Briefly, SLAMdunk relies on NextGenMap, a flexible and fast read mapping program, and was tailored using an adapted scoring scheme eliminating T>C mismatch penalties for the mapping step. T>C containing reads and non-T>C containing reads aligning to 3′ UTRs were quantified to deduce s^4U- or unlabeled transcript abundance, respectively. […]
# [3] = tested on: Drosophila S2 cells; assay: Viability of Drosophila S2 cells under s^4U labeling conditions; type: cell-based, Drosophila melanogaster; settings: 500 μM, 24 h
structure (smiles),measurement,setting,value
"O=c1[nH]c(=S)ccn1[C@@H]1O[C@H](CO)[C@@H](O)[C@H]1O [s^4U, 4-thiouridine]",maximum average s^4U incorporation in total RNA,[1],1.78%
same,median s^4U-incorporation in mRNA (3' UTRs),[2]; 24 h labeling,2.56%
same,increase in T>C mutation rates,[2]; 24 h labeling vs unlabeled,25 fold
same,effect on cell viability,[3],do not interfere with cell viability
